Laboratory results: paper PMC11087051, “Large-scale deorphanization of Nematostella vectensis neuropeptide G protein-coupled receptors supports the independent expansion of bilaterian and cnidarian peptidergic systems” (eLife, 2024)
Residues, ends and D or L forms follow the SMILES beside them. No end group written: not given here.

Test: Maximal solubility of the synthetic peptides in water and in DMSO (sheet Peptide_mixes)
Format: physicochemical
Settings: for max solve (DMSO): in DMSO, number in brackets in the cell; for max solve water: in water, number before the bracket in the cell
Text: Supplement elife-90674-supp3.xlsx, sheet "Peptide_mixes"

Molecule	max solve (DMSO)	max solve water
CC[C@H](C)[C@H](NC(=O)[C@@H]1CCC(=O)N1)C(=O)N[C@H](C(=O)N[C@@H](CCCNC(=N)N)C(=O)N[C@@H](Cc1ccccc1)C(N)=O)[C@@H](C)O [RFa0] (HELM PEPTIDE1{[Glp].I.T.R.F.[am]}$$$$V2.0)	5 (5) mg/ml	5 (5) mg/ml
CC(C)C[C@H](NC(=O)CNC(=O)[C@@H]1CCC(=O)N1)C(=O)N[C@@H](CCCNC(=N)N)C(=O)N[C@@H](Cc1c[nH]c2ccccc12)C(N)=O [LRWa1] (HELM PEPTIDE1{[Glp].G.L.R.W.[am]}$$$$V2.0)	5 mg/mL	0 mg/mL
CC(C)C[C@H](NC(=O)CNC(=O)[C@@H]1CCCN1C(=O)[C@@H]1CCCN1C(=O)CNC(=O)[C@H](C)NC(=O)[C@@H]1CCC(=O)N1)C(=O)N[C@@H](Cc1c[nH]c2ccccc12)C(N)=O [GLWa2] (HELM PEPTIDE1{[Glp].A.G.P.P.G.L.W.[am]}$$$$V2.0)	10 (10) mg/ml	10 (10) mg/ml
IPPQGLRFNQW-NH2 [QWa2]	10 mg/mL	5 mg/mL
CC[C@H](C)[C@H](NC(=O)[C@H](CC(C)C)NC(=O)[C@@H]1CCC(=O)N1)C(=O)N[C@@H](Cc1ccccc1)C(=O)N[C@@H](CCCNC(=N)N)C(=O)N1CCC[C@H]1C(N)=O [FRPa] (HELM PEPTIDE1{[Glp].L.I.F.R.P.[am]}$$$$V2.0)	10 mg/mL	5 mg/mL
N=C(N)NCCC[C@H](NC(=O)[C@@H]1CCCN1C(=O)CN)C(=O)NCC(N)=O [PRGa] (H-GPRG-NH2)	10 (10) mg/ml	10 (10) mg/ml
CC(C)C[C@H](NC(=O)CNC(=O)[C@@H]1CCCN1C(=O)[C@H](C)NC(=O)CNC(=O)[C@H](C)NC(=O)[C@@H]1CCC(=O)N1)C(=O)N[C@@H](Cc1c[nH]c2ccccc12)C(N)=O [GLWa1] (HELM PEPTIDE1{[Glp].A.G.A.P.G.L.W.[am]}$$$$V2.0)	10 mg/mL	5 mg/mL
CC(C)C[C@H](NC(=O)CNC(=O)[C@@H]1CCCN1C(=O)[C@@H]1CCCN1C(=O)[C@@H](N)CS)C(=O)N[C@@H](Cc1c[nH]c2ccccc12)C(=O)N[C@@H](CS)C(N)=O [Am_CCa] (H-CPPGLWC-NH2)	10 mg/mL	5 mg/mL
CC[C@H](C)[C@H](NC(=O)[C@H](Cc1c[nH]cn1)NC(=O)[C@H](Cc1ccccc1)NC(=O)[C@H](Cc1ccc(O)cc1)NC(=O)[C@H](C)NC(=O)[C@@H]1CCCN1C(=O)[C@@H](NC(=O)[C@H](CC(C)C)NC(=O)[C@H](CC(=O)O)NC(=O)[C@H](CC(C)C)NC(=O)[C@H](Cc1ccc(O)cc1)NC(=O)[C@@H]1CCCN1C(=O)[C@@H]1CCCN1C(=O)[C@@H]1CCC(=O)N1)[C@@H](C)O)C(=O)N[C@@H](CCCNC(=N)N)C(N)=O [HIRa3] (HELM PEPTIDE1{[Glp].P.P.Y.L.D.L.T.P.A.Y.F.H.I.R.[am]}$$$$V2.0)	10 mg/mL	5 mg/mL
EIQPGNMKVWSDPF [PNX14]	10 mg/mL	5 mg/mL
APGLW-NH2 [GLWa4]	10 (10) mg/ml	10 (10) mg/ml
CC(C)C[C@H](NC(=O)[C@H](Cc1ccccc1)NC(=O)[C@H](C)NC(=O)[C@H](CC(=O)O)NC(=O)[C@@H]1CCC(=O)N1)C(=O)N1CCC[C@H]1C(=O)N[C@@H](CCCCN)C(=O)N1CCC[C@H]1C(=O)N[C@@H](CCCNC(=N)N)C(=O)N1CCC[C@H]1C(N)=O [RPa1] (HELM PEPTIDE1{[Glp].D.A.F.L.P.K.P.R.P.[am]}$$$$V2.0)	10 (10) mg/ml	10 (10) mg/ml
MPEQDANPQTRFD-NH2 [RFa2]	10 mg/mL	5 mg/mL
GPRGGRSYDGPRG-NH2 [PRGa4]	10 mg/mL	5 mg/mL
GPPMIKIPVRH-NH2 [VRHa]	10 (10) mg/ml	10 (10) mg/ml
GPRGGREVNLEGPRG-NH2 [PRGa2]	5 (5) mg/ml	5 (5) mg/ml
CC[C@H](C)[C@H](NC(=O)[C@H](Cc1c[nH]cn1)NC(=O)[C@H](Cc1ccccc1)NC(=O)[C@H](Cc1ccccc1)NC(=O)[C@H](CO)NC(=O)[C@@H]1CCCN1C(=O)[C@H](CCC(=O)O)NC(=O)CNC(=O)[C@H](CC(C)C)NC(=O)[C@H](CC(=O)O)NC(=O)[C@H](CC(C)C)NC(=O)[C@H](Cc1ccc(O)cc1)NC(=O)[C@@H]1CCCN1C(=O)[C@@H]1CCCN1C(=O)[C@@H]1CCC(=O)N1)C(=O)N[C@@H](CCCNC(=N)N)C(N)=O [HIRa1] (HELM PEPTIDE1{[Glp].P.P.Y.L.D.L.G.E.P.S.F.F.H.I.R.[am]}$$$$V2.0)	10 (10) mg/ml	10 (10) mg/ml

Molecule	max solve (DMSO)	max solve water
CC[C@H](C)[C@H](NC(=O)[C@H](CC[S+](C)[O-])NC(=O)[C@@H]1CCCN1C(=O)[C@@H]1CCCN1C(=O)CN)C(=O)N[C@@H](CCCCN)C(=O)N[C@H](C(=O)N1CCC[C@H]1C(=O)N[C@H](C(=O)N[C@@H](CCCNC(=N)N)C(=O)N[C@@H](Cc1c[nH]cn1)C(N)=O)C(C)C)[C@@H](C)CC (stereo partly drawn) [RHa2] (HELM PEPTIDE1{G.P.P.[CS(=O)CC[C@H](N[*:1])C(=O)[*:2]].I.K.I.P.V.R.H.[am]}$$$$V2.0)	10 mg/mL	5 mg/mL
CC(C)C[C@H](NC(=O)[C@H](CO)NC(=O)[C@H](CCC(=O)O)NC(=O)CNC(=O)[C@H](CC(=O)O)NC(=O)[C@@H](NC(=O)[C@H](CCC(=O)O)NC(=O)[C@@H]1CCC(=O)N1)[C@@H](C)O)C(=O)N[C@@H](CCCCN)C(=O)N[C@@H](CCCCN)C(=O)N[C@@H](C)C(=O)N[C@@H](CCC(=O)O)C(=O)N[C@@H](CCC(=O)O)C(=O)N[C@@H](CCC(=O)O)C(=O)N[C@@H](Cc1ccccc1)C(=O)N[C@H](C(=O)O)C(C)C [EFV] (HELM PEPTIDE1{[Glp].E.T.D.G.E.S.L.K.K.A.E.E.E.F.V}$$$$V2.0)	10 mg/mL	5 mg/mL
CC(C)C[C@H](NC(=O)CNC(=O)[C@@H]1CCCN1C(=O)[C@@H]1CCCN1C(=O)[C@H](CS)NC(=O)[C@@H]1CCC(=O)N1)C(=O)N[C@@H](Cc1c[nH]c2ccccc12)C(=O)NCC(=O)N[C@@H](CS)C(=O)O [GLWG] (HELM PEPTIDE1{[Glp].C.P.P.G.L.W.G.C}$$$$V2.0)	10 (10) mg/ml	10 (10) mg/ml
YPPLNTV-NH2 [NTVa]	10 mg/mL	5 mg/mL
N=C(N)NCCC[C@H](NC(=O)CNC(=O)[C@H](CCC(N)=O)NC(=O)[C@H](CC(=O)O)NC(=O)[C@H](CCC(=O)O)NC(=O)[C@H](CCCNC(=N)N)NC(=O)CNC(=O)[C@H](Cc1ccccc1)NC(=O)[C@H](CCCNC(=N)N)NC(=O)CNC(=O)[C@@H]1CCC(=O)N1)C(=O)N[C@@H](Cc1ccccc1)C(N)=O [RFa1] (HELM PEPTIDE1{[Glp].G.R.F.G.R.E.D.Q.G.R.F.[am]}$$$$V2.0)	10 mg/mL	5 mg/mL
TPPSNI-NH2 [SNIa]	5 mg/mL	2 mg/mL
GPRGGRATEFGPRG-NH2 [PRGa3]	10 (10) mg/ml	10 (10) mg/ml
CC(C)C[C@H](NC(=O)[C@@H](N)Cc1ccccc1)C(=O)N[C@@H](CCCNC(=N)N)C(=O)N[C@@H](CC(N)=O)C(N)=O [FLRNa] (H-FLRN-NH2)	10 (10) mg/ml	10 (10) mg/ml
CC(C)C[C@H](NC(=O)[C@H](CCCNC(=N)N)NC(=O)[C@@H](NC(=O)[C@H](CC(N)=O)NC(=O)[C@H](C)NC(=O)[C@H](CCCCN)NC(=O)[C@@H]1CSSC[C@H](NC(=O)[C@H](Cc2c[nH]cn2)NC(=O)CNC(=O)[C@H](CC(N)=O)NC(=O)[C@@H]2CCC(=O)N2)C(=O)N2CCC[C@H]2C(=O)N2CCC[C@H]2C(=O)NCC(=O)N[C@@H](CC(C)C)C(=O)N[C@@H](Cc2c[nH]c3ccccc23)C(=O)N[C@@H](CC(C)C)C(=O)N1)[C@@H](C)O)C(=O)O [GLWLcc] (HELM PEPTIDE1{[Glp].N.G.H.C.P.P.G.L.W.L.C.K.A.N.T.R.L}$PEPTIDE1,PEPTIDE1,5:R3-12:R3$$$V2.0)	5 (5) mg/ml	5 (5) mg/ml
CC(C)C[C@H](NC(=O)[C@H](CO)NC(=O)[C@H](C)NC(=O)[C@@H](NC(=O)[C@H](CC(=O)O)NC(=O)[C@H](CC(N)=O)NC(=O)[C@H](CCC(=O)O)NC(=O)[C@H](CO)NC(=O)[C@@H](NC(=O)[C@H](CCC(=O)O)NC(=O)[C@H](CO)NC(=O)[C@@H](NC(=O)[C@H](CO)NC(=O)[C@@H]1CCCN1C(=O)[C@H](CC(C)C)NC(=O)[C@@H]1CCC(=O)N1)C(C)C)C(C)C)C(C)C)C(=O)N[C@@H](CC(C)C)C(=O)N[C@@H](CCCNC(=N)N)C(=O)N[C@@H](CCC(=O)O)C(=O)O [LRE] (HELM PEPTIDE1{[Glp].L.P.S.V.S.E.V.S.E.N.D.V.A.S.L.L.R.E}$$$$V2.0)	5 mg/mL	0 mg/mL
QPGNMKVWSDPF [PNX12]	5 mg/mL	0 mg/mL
CC(C)C[C@H](NC(=O)[C@@H]1CCC(=O)N1)C(=O)N[C@@H](Cc1ccccc1)C(=O)N[C@@H](CCCNC(=N)N)C(=O)N1CCC[C@H]1C(N)=O [FRPa4] (HELM PEPTIDE1{[Glp].L.F.R.P.[am]}$$$$V2.0)	10 (10) mg/ml	10 (10) mg/ml
C[C@@H](O)[C@H](NC(=O)[C@H](Cc1c[nH]cn1)NC(=O)[C@H](Cc1ccccc1)NC(=O)[C@H](Cc1ccc(O)cc1)NC(=O)[C@@H]1CCCN1C(=O)[C@@H]1CCC(=O)N1)C(=O)N[C@@H](CC(=O)O)C(=O)N[C@@H](CC(N)=O)C(=O)N[C@@H](CO)C(=O)N1CCC[C@H]1C(=O)N[C@@H](CC(N)=O)C(=O)N[C@@H](CCCNC(=N)N)C(=O)N[C@@H](Cc1ccccc1)C(N)=O [NRFa] (HELM PEPTIDE1{[Glp].P.Y.F.H.T.D.N.S.P.N.R.F.[am]}$$$$V2.0)	5 (5) mg/ml	5 (5) mg/ml
LPPRFGGQI-NH2 [QIa]	10 mg/mL	5 mg/mL
IPPQGFRFSQW-NH2 [QWa]	10 mg/mL	0 mg/mL
APRGGRDAPRG-NH2 [PRGa5]	10 (10) mg/ml	10 (10) mg/ml
